“Also recorded” adds a separate entry of the source. Where two headings read alike, the source gives them in different places.
Columns and labels:
hPBMCs [1] = experiment: Macrophage lineage in hPBMCs over 3, 7 and 10 days; assay type: cell-based, human; conditions: 100 μM
mice [2] = experiment: Mouse model of influenza peptide vaccination; assay type: in vivo; conditions: AVR-48 alone or with Flu-A peptide, vs MPLA
Experimental: Study design: N=4/per group ([…], 6-7 months old). Group-1: (FluA) 1st dose; No 2nd dose; Group-2: (FluA) 1st dose; (FluA+MPLA) 2nd dose; Group 3: AVR-48 1st dose; No 2nd dose; and Group 4: Flu-A 1st dose; Flu-A+AVR-48 2nd dose.
Outcome measures: immune cell quantification (FACS) in the spleen, and IgG in serum (ELISA).
(§1) In vivo study: In one study, C57Bl/6J mice (n=4/group) were dosed intramuscularly (IM) with either complete Freund's adjuvant (CFA) or incomplete Freund's adjuvant (IFA) along with AVR-48 for a 28-day study using a prime-boost-boost regimen. In the second study, mice were dosed with MPLA and Flu-peptide using only the priming dose regimen (no booster). Splenic immune cells and plasma immunoglobin concentrations were assessed at day 28.

[3] = system: preterm lamb model of BPD; experiment: Lung histopathology and quantitative histology of lamb lungs; assay type: in vivo; conditions: for radial alveolar count (RAC) / distal airspace wall thickness / secondary septal volume density: vs vehicle
Experimental: Terminal tissue collection. The inventors followed the methods the developed for terminal tissue collection.^14,17,26-28 Briefly, at the end of the early-stage study (DOL10) or late-stage study (DOL90 for FPT lambs; DOL60 for term reference lambs), the lambs were given ketamine (10-20 mg/Kg, intramuscularly) followed by face mask inhalation anesthesia with 1.0-2.5% isoflurane with O2. Lambs were intubated and ventilated with a tidal volume of 5-7 mL/kg, and given heparin (1000 U, iv). The lambs were given Beuthanasia solution (0.25 mL/Kg, iv; Intervet Inc., Madison, NJ) followed by potassium chloride (10 mEq, iv; Hospira, Lake Forest, IL).
For morphological analyses, the entire left lung was insufflated with formalin and sampled by systematic, uniform, random methods for quantitative histology.^29 Morphometric and stereologic methods quantified radial alveolar count, secondary septal volume density, and thickness of distal airspace walls.^27 Alveolar capillary growth was quantified by a combination of immunohistochemistry to identify endothelial cells in lung tissue sections and quantitative histology.^27 For capillary surface density measurement, a recombinant anti-CD-34 antibody was used (ab81289, Abcam; Waltham, MA) for the capillary endothelial cell marker. Negative immunostain controls were omission of the primary antibody, omission of the secondary antibody, and substitution of the primary antibody with a species-matched, irrelevant antibody. Epithelium lining the air spaces was counterstained blue. The inventors used a computer-assisted true-color imaging system (Bioquant Life Science, Nashville, TN) to quantify the surface density of alveolar capillaries and the overlying epithelium.

hPBMCs [4] = experiment: hPBMCs treated 7 days with AVR-48, LPS, MPLA, Influenza-A peptides, flow cytometry; assay type: cell-based, human
[5] = Plasma pharmacokinetics of AVR-48 after iv dosing in preterm lambs; assay type: in vivo, lamb
Experimental: Formulation and dosing of AVR-48. AVR-48 (3 mg/mL) was formulated in 0.9% sterile saline and filtered through a 0.2-micron syringe filter into 10 mL serum vials ready for dosing. The efficacy dose was determined in a pilot study by stepwise escalating the AVR-48 dose concentrations. […] The vehicle control groups received 0.9% sterile saline every 12 hours (h).
Pharmacokinetic study. The pharmacokinetics (PK) of AVR-48 were determined using plasma from the PT lambs following twice daily IV infusion (10 min) of AVR-48 every 12 h for 7 days. Tested doses were 0 (n=2), 0.1 (n=1), 0.3 (n=1), 1.0 (n=2), 3.0 (n=3), and 9 (n=1) mg/kg. PK evaluation for AVR-48 was only performed for DOL1 (12 time points between 0 and 12 h after the initial dose; volume of plasma samples through DOL2-7 was inadequate for PK evaluation). Quality-controlled plasma bioanalytical data were transferred from the Bioanalytical group to the PK Scientist of the Biopharmaceutics Department of Pharmascience Inc. Samples were analyzed, using Phoenix WinNonlin software, version 8.1 (Certara, USA), using a previously standardized HPLC/LC/MS method.

TLR4 pathway = experiment: Western blot of TLR4 pathway proteins in hPBMC and CBMCs; assay type: cell-based, human; conditions: 100 μM, alone and with LPS 50 ng/mL
Experimental: FIGS. 14A to 14D show Western Blot analysis for quantification of TLR4 pathway proteins and densitometry of (FIGS. 14A-FIG. 14C) using adult hPBMC and (FIG. 14D) CBMCs. After treatment with AVR-48 [100 μM], LPS [50 ng/mL], and in combination indicates AVR-48 activates TLR4 pathway via increasing phospho-MyD88 and phospho-TTRAP, with no activation via TRAM, and inhibiting the phosphorylation of the NF-kB pathway.
CBMCs were treated with either AVR-123 [100 μM], LPS [50 ng/mL] or AVR-123+LPS for 24 h. […] (FIG. 23G) AVR-123 decreases phosphorylated NFkB alone and when combined with LPS in CBMCs via western blot analysis. N=3, One-way ANOVA.

mice [6] = experiment: Ovalbumin vaccination mouse model with CFA/IFA; assay type: in vivo; conditions: AVR-48 along with Ovalbumin±CFA/IFA, day 28
Experimental: Study Design: N=4/per group (Balbc/6J, 6-7 months old). Group-1: (OVA+CFA) 1st dose; (OVA+IFA) 2nd dose; OVA-3rd dose; Group 2: OVA+CFA+AVR-48 1st dose; OVA+IFA+AVR-48 2nd dose; OVA+AVR-48 3rd dose; and Group 3: OVA+IFA+AVR48 1st dose; OVA+IFA+AVR-48 2nd dose; OVA+AVR-48 3rd dose.
Outcome measures: Immune cell quantification (FACS) in the spleen and IgG in serum (ELISA).
as §1

[7] = 3.00 mg/kg bid iv, Day 1, 0 to 12 hr post dose, lamb plasma
[8] = 3.00 mg/kg bid iv, Day 1, lamb plasma

CC(=O)NC1C(Oc2ccc([N+](=O)[O-])cc2)OC(CO)C(O)C1O (stereo not drawn) [AVR-48]
macrophage lineage (hPBMCs [1]; day 3 (IFN-γ high CD206 high)): highest % of intermediate macrophage
macrophage lineage (hPBMCs [1]; day 7 (IFN-γ low CD206 high)): polarizing to M2 phenotype
macrophage lineage (hPBMCs [1]; day 10 (IFN-γ high CD206 low)): finally to M1
CD4+ T-helper cells in mouse spleen (mice [2]): increased
CD8+ T cells in mouse spleen (mice [2]): increased
CD19+ B cells in mouse spleen (mice [2]): increased
CD38+/CD27+ plasma blasts in mouse spleen (mice [2]): increased
IgG in mouse serum (mice [2]): increased
radial alveolar count (RAC) ([3]; 10d, PT lambs, 3.0 mg/kg): significant increase
distal airspace wall thickness ([3]; 10d, PT lambs): significantly thinner
secondary septal volume density ([3]; 10d, PT lambs): significantly higher
radial alveolar count (RAC) ([3]; 90d, FPT lambs, 3.0 mg/kg): significant increase
distal airspace wall thickness ([3]; 90d, FPT lambs): thinner (but not statistically different)
secondary septal volume density ([3]; 90d, FPT lambs): higher in the AVR-48 lambs (but not statistically different)
development of terminal respiratory units (TRUs) ([3]; early-stage and late-stage studies, 3.0 mg/kg): significantly better development
TEMRE effector T-cell production (hPBMCs [4]; compared to MPLA): stimulated more
CD8+ IFN-g+ T-memory and helper cell recruitment (hPBMCs [4]; in the presence of influenza-A peptide): perturbated
CD4+ T-cells production (hPBMCs [4]; vs MPLA): outperformed MPLA
CD27− T-cells production (hPBMCs [4]; vs MPLA): outperformed MPLA
AUC(0-t) [5, 7]: 4222.9 ± 1835.9 ng·h/mL
Cmax [5, 7]: 3885.7 ± 1458.7 ng/mL
Tmax ([5]; 3.00 mg/kg bid iv, Day 1, 0 to 12 hr post dose, male and female lamb plasma): 15 min
C0 (theoretical Cmax, concentration extrapolated to 0 hr) [5, 8]: 5138.8 ng/mL
CL [5, 8]: 13.19 mL/min/kg
T1/2 [5, 8]: 38.4 ± 14.4 min
Tlast [5, 8]: 4.75 h
Vd [5, 8]: 0.6684 ± 0.129 L/kg
plasma concentration 15 minutes after each repeat dosing ([5]; 3.0 mg/kg iv every 12 h for 7 d, lamb plasma): 3886.6 ± 619.7 ng/mL
Cmax ([5]; 3.0 mg/kg/dose iv, lamb plasma, read-out: Cmax): 10.7 µM
Exposure (AUC(0-t)) over the dose range tested ([5]; 0.1-9 mg/kg/dose iv): increased dose-relatedly; also recorded: increased in a dose-related manner
repeat dose Cmax ([5]; iv every 12 h for 7 d, 0.1-9 mg/kg/dose): consistent and dose-dependent
activation via TRAM (TLR4 pathway): no activation
phospho-MyD88 (TLR4 pathway): increasing
phospho-TTRAP (TLR4 pathway): increasing
CD138+/CD38+/CD27+ plasma cells in mouse spleen (mice [6]): Increased
IgG in serum (mice [6]): Increased
